# Experimental data reported in patent US7507547B2, “Screening assays for antioxidants and antiproliferative compounds” (University of Massachusetts, priority 2004, dated 2009).
# Where two headings read alike, the source gives them in different places.
# Columns and labels:
# NTR1 = biological target: T1, NTR1 (Homo sapiens, UniProt P30989); test: ^125I-NT binding to PC3 cells; conditions: for Effect on NT binding in PC3 cells: n=3; for NT Binding Assay: ability to enhance NT binding in PC3 cells; for NT Binding Efficacy % increase: maximal % increase in NT binding observed for each agent
# T1 construct: endogenous in cells; host or cells: PC3 cells (ATCC)
# [1] = parameters: key: +: All of the compounds listed in Table 12 were anticancerous; conditions: from anticancer literature; cited from earlier work
# [2] = tested on: NT-induced inositol phosphate (IP) formation in PC3 cells; test: NT-induced IP formation in PC3 cells; type: cell-based; conditions: for IC50: Homo sapiens, PC-3; for IP Formation Efficacy (% decrease): maximal % decrease in NT-induced IP formation
# PC3 cells = test: NT-induced proliferation of PC3 cells (^3H-thymidine); type: cell-based; conditions: Homo sapiens, PC-3; 24 hours, 10 nM NT; read-out: IC50 for inhibition of NT-induced proliferation
# [3] = general reducing agents and antioxidants
# [4] = [agent] giving 50% decrease in IP formation
# T1 sequence (P30989 whole entry): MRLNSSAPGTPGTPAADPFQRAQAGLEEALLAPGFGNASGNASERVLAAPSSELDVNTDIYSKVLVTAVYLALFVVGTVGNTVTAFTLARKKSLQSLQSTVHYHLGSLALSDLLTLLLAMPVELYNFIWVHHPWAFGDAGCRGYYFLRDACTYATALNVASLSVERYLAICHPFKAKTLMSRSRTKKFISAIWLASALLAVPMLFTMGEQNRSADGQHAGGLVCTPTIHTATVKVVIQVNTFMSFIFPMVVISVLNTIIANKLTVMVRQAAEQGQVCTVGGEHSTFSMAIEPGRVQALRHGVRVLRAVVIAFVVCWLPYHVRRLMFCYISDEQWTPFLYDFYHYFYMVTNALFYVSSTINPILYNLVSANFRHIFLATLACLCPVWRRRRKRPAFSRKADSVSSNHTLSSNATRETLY
molecule,measurement,setting,value
O=C1O[C@H]([C@@H](O)CO)C(O)=C1O [ascorbic acid],Effect on NT binding,NTR1; [3],not much affected
same,Effect on NT binding in PC3 cells,NTR1; used at 20-180 μM,ineffective
N.N.[Cl][Pt][Cl] [cis-platin],NT Binding Assay,NTR1,+
same,Anti-cancer,[1],+
CC/C(=C(/CC)c1ccc(O)cc1)c1ccc(O)cc1 [diethylstilbesterol],NT Binding Assay,NTR1,+
same,Anti-cancer,[1],+
O=c1oc2c(O)c(O)cc3c(=O)oc4c(O)c(O)cc1c4c23 [ellagic acid],Effect on NT binding in PC3 cells,NTR1; used at 10-100 μM,without effect
CC(C)=CCCC(C)=CCCC(C)=CCO [farnesol],NT Binding Assay,NTR1,+
same,Anti-cancer,[1],+
CCOC(=O)C1=C(C)NC(C)=C(C(=O)OC)C1c1cccc(Cl)c1Cl (centres unmarked) [felodipine],IC50,[2]; [4],1000 nM
Fc1ccc(C(c2ccc(F)cc2)N2CCN(C/C=C/c3ccccc3)CC2)cc1 [flunarizine],NT Binding Efficacy % increase,NTR1,45 % increase
O=c1c(-c2ccc(O)cc2)coc2cc(O)cc(O)c12 [genistein],NT Binding Assay,NTR1,+
same,Anti-cancer,[1],+
N[C@@H](CCC(=O)N[C@@H](CS)C(=O)NCC(=O)O)C(=O)O [glutathione],Effect on NT binding in PC3 cells,NTR1; used at 1-3 mM,without effect
O=c1cc(-c2ccc(O)c(O)c2)oc2cc(O)cc(O)c12 [luteolin],IC50,[2]; [4],38000 nM
same,EC50,NTR1; [agent] giving 75% increase in NT binding,40000 nM
same,NT Binding Assay,NTR1,+
same,Anti-cancer,[1],+
Clc1ccc(COC(Cn2ccnc2)c2ccc(Cl)cc2Cl)c(Cl)c1 (centres unmarked) [miconazole],IP Formation Efficacy (% decrease),[2],54 % decrease
COC(=O)C1=C(C)NC(C)=C(C(=O)OCCN(C)Cc2ccccc2)C1c1cccc([N+](=O)[O-])c1 (centres unmarked) [nicardipine],IC50,[2]; [4],3000 nM
same,IC50,PC3 cells,100 nM
CCOC(=O)C1=C(C)NC(C)=C(C(=O)OC)C1c1cccc([N+](=O)[O-])c1 (centres unmarked) [nitrendipine],IC50,[2]; [4],2000 nM
c1cnc2c(c1)ccc1cccnc12 [o-phenanthroline],NT Binding Assay,NTR1,+
same,Anti-cancer,[1],+
Cc1ncc(CO)c(CO)c1O [pyridoxine],Effect on NT binding,NTR1; [3],not much affected
same,Effect on NT binding in PC3 cells,NTR1; used at 20-180 μM,ineffective
Cc1cc2nc3c(=O)[nH]c(=O)nc-3n(C[C@H](O)[C@H](O)[C@H](O)CO)c2cc1C [riboflavin],Effect on NT binding,NTR1; [3],not much affected
same,Effect on NT binding in PC3 cells,NTR1; used at 20-180 μM,ineffective
C=C(C)[C@H]1Cc2c(ccc3c2O[C@@H]2COc4cc(OC)c(OC)cc4[C@@H]2C3=O)O1 [rotenone],NT Binding Assay,NTR1,+
same,Anti-cancer,[1],+
C[C@@H]1O[C@@H](OC[C@H]2O[C@@H](Oc3c(-c4ccc(O)c(O)c4)oc4cc(O)cc(O)c4c3=O)[C@H](O)[C@@H](O)[C@@H]2O)[C@H](O)[C@H](O)[C@H]1O [rutin],Efficacy for altering NT binding to NTR,NTR1; flavonoids,inactive
[BH4-].[Na+] [sodium borohydride],Effect on NT binding,NTR1,not much affected
same,Effect on NT binding in PC3 cells,NTR1; used at 1-3 mM,without effect
COc1ccc2cc1Oc1ccc(cc1)C[C@H]1c3cc(c(OC)cc3CCN1C)Oc1c(OC)c(OC)cc3c1[C@H](C2)N(C)CC3 [tetrandrine],NT Binding Efficacy % increase,NTR1,35 % increase
Cc1ncc(C[n+]2csc(CCO)c2C)c(N)n1 [thiamine],Effect on NT binding,NTR1; [3],not much affected
same,Effect on NT binding in PC3 cells,NTR1; used at 20-180 μM,ineffective
CN1CCN(CCCN2c3ccccc3Sc3ccc(C(F)(F)F)cc32)CC1 [trifluoperazine],IC50,[2]; [agent] at which IP formation was decreased by 50%,> 100000 nM
same,IP Formation Efficacy (% decrease),[2],14 % decrease
same,NT Binding Efficacy % increase,NTR1,16 % increase
Cc1c(C)c2c(c(C)c1O)CCC(C)(C(=O)O)O2 (centres unmarked) [trolox],Effect on NT binding,NTR1; [3],not much affected
same,Effect on NT binding in PC3 cells,NTR1; used at 10-100 μM,without effect
"CC1=CC(=O)c2ccccc2C1=O [vitamin K, menadione]",NT binding (% of control) at 180 µM,NTR1; 180 μM,168 ± 8%
Cc1c(C)c2c(c(C)c1O)CC[C@@](C)(CCC[C@H](C)CCC[C@H](C)CCCC(C)C)O2 [α-tocoferol],Effect on NT binding in PC3 cells,NTR1; used at 20-180 μM,ineffective
CC1=C(/C=C/C(C)=C/C=C/C(C)=C/C=C/C=C(C)/C=C/C=C(C)/C=C/C2=C(C)CCCC2(C)C)C(C)(C)CCC1 [β-carotene],Effect on NT binding in PC3 cells,NTR1; used at 20-180 μM,ineffective
(−)-epigallocatechin gallate,Effect on NT binding in PC3 cells,NTR1; used at 10-100 μM,without effect
Mevinolin,NT Binding Assay,NTR1,+
same,Anti-cancer,[1],+
antimycin A,Anti-cancer,[1],+
bisindole maleimide,NT Binding Assay,NTR1,+
same,Anti-cancer,[1],+
